In article PMC12289066, “Identification of glutathione transferase (GST P1) inhibitors via a high-throughput screening assay and implications as alternative treatment options for breast cancers” (PLOS One, 2025):
Where two headings read alike, the source gives them in different places.

What was measured:
GST P1-1 [1] = target: T1, GST P1-1 (Homo sapiens, UniProt P09211); experiment: Determination of IC50 for GST P1-1 enzyme (dose-response / reconfirmation assay); type: biochemical
T1 construct: purchased Sigma-Aldrich
Experimental: (§1) Each drug compound was added to the respective well at a volume of 80 nL of 10 mM stock solution in DMSO, yielding a final compound concentration of 10 μM and a final DMSO concentration of 0.1%. Each plate’s first and last two columns were used as negative (no compound added – 80 nL per well of DMSO) and positive (80 nL of EA added with a final concentration of 50 μM) controls, respectively. The Gyger Certus Flex dispenser was set up using a freshly prepared 1 mM of GSH and 20 nM of GST P1-1, pH 7.4, in one syringe and 8 mM CDNB solution in pure ethanol in the other syringe. Into each well 80 μL of GST-GSH solution was dispensed and incubated at 25°C for 20 minutes before the reaction was initiated by the addition of 4 μL of CDNB solution. The plates were incubated for 2 h in the dark at 25°C and then the absorbance was of each well recorded on a BioTek Synergy NEO HTS multimode plate reader (Agilent®) at a wavelength of 340 nm.
The IC50 of the GST P1-1 enzyme was determined for the 80 drug compounds with the highest score in the GST P1-1 screening assay. The assay conditions were used for the screening assay and each drug compound was tested at 8 different concentrations (μM) starting at 30 µM final assay concentration with a half-log dilution and 2 replicates per concentration.

MCF-7 cells = experiment: MTT cytotoxicity assay, MCF-7; type: cell-based, human; conditions: MTT, 72 h incubation, read-out: IC50 (average ± standard deviation) MCF-7
Experimental: (§2) L929, MCF-7, and MDA-MB-231 cell lines were cultured in DMEM GlutaMAX media containing 10% heat-inactivated FBS and 1% (v/v) penicillin-streptomycin at 37°C and CO2 (5%). Cytotoxicity was determined using a 3-(4,5-dimethyl 2-thiazolyl)-2,5-diphenyl-2H-tetrazolium bromide (MTT) assay. 100 μL aliquots and approximately 50’000 cells/well were added to each well of flat-bottomed 96-well plates and incubated for 24 h in a humidified chamber at 37°C under saturated air with a 5% CO2 atmosphere. Stock solutions of 10 mM drug compounds were prepared in DMSO and were sequentially diluted with the cell culture buffer to give a final DMSO concentration of 0.5%. The solutions were added to the 96-well plates in 100 μL aliquots and 100 μL of buffer was added as a control to give a final drug compound concentration range of 0 − 100 μM. The plates were incubated for a further 72 h under the same conditions as before. MTT (10 μL, 5 mg/mL in Dulbecco’s phosphate-buffered saline) was added to each well and the plates were incubated for a further 3 h under the same conditions as before. The culture medium was aspirated from each well and the purple formazan crystals, formed by the mitochondrial dehydrogenase activity of vital cells, were dissolved in 100 μL DMSO. The absorbance of the resulting solutions was measured at 570 and 630 nm using a SpectraMax M5e multimode microplate reader and SoftMax Pro software, version 6.2.2. As the absorbance is directly proportional to the number of surviving cells, the percentage of surviving cells was calculated from the absorbance of wells relative to the control. The reported IC50 values are based on the mean from four independent experiments, each comprising three replicates per concentration.

MDA-MB-231 cells = experiment: MTT cytotoxicity assay, MDA-MB-231; type: cell-based, human; conditions: MTT, 72 h incubation, read-out: IC50 (average ± standard deviation) MDA-MB-231
Experimental: as §2

L929 cells = experiment: MTT cytotoxicity assay, L929; type: cell-based, mouse; conditions: MTT, 72 h incubation, read-out: IC50 (average ± standard deviation) L929
Experimental: as §2, with “Cytotoxicity” for “L929, MCF-7, and MDA-MB-231 cell lines were cultured in DMEM GlutaMAX media containing 10% heat-inactivated FBS and 1% (v/v) penicillin-streptomycin at 37°C and CO2 (5%). Cytotoxicity”, “Stock solutions of 10 mM drug compounds were prepared in DMSO and were sequentially diluted with the cell culture buffer to give a final DMSO concentration of 0.5%. The solutions were added to the 96-well plates in 100 μL aliquots and 100 μL of buffer was added as a control to give a final drug compound concentration range of 0 − 100 μM.” left out

GST P1-1 [2] = target: T1, GST P1-1; experiment: High-throughput GST P1-1 inhibition assay (384-well screen, CDNB/GSH); type: biochemical; conditions: compound 10 μM; score 0 = negative control (DMSO), 1 = positive control (EA 50 μM); average of duplicate
Experimental: as §1
The z’factor was calculated for each plate according to Zhang et al.. The Z-factor is a dimensionless, simple statistical characteristic for each HTS assay. This provides a valuable tool for the comparison and assessment of the quality of assays, and can be utilized in assay optimization and validation. For each plate, the concentration of product was normalized by assigning a score of 0 (0%) to the negative control (average of maximal concentration of product measured in the presence of enzyme without any inhibitor) and a score of 1 (100%) was assigned to the positive control (average minimal concentration of product measured in the presence of enzyme with the reference inhibitor, i.e., EA). The experiment was performed in duplicate and the score for each drug compound was calculated as an average ± standard deviation. […] An internal laboratory information management system (LIMS) was used for basic data processing, management, visualization, and statistical hit validation.

[3] = Table 2, rounded values, read-out: IC50 GSTP1 enzymatic reaction
[4] = reconfirmation assay, Table S2, read-out: IC50 GSTP1

T1 sequence (P09211 2-210 limits assumed): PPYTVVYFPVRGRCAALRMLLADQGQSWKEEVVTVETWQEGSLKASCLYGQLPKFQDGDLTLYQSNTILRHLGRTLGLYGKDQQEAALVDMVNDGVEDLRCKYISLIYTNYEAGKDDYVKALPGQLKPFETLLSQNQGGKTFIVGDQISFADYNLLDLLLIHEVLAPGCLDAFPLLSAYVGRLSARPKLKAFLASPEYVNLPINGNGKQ

| Molecule | IC50 (GST P1-1 [1]; [3]) | Hill Slope (dose-response curve) (GST P1-1 [1]; reconfirmation assay) | IC50 (GST P1-1 [1]; [4]) | IC50 (MCF-7 cells; Homo sapiens, MCF7) | IC50 (MDA-MB-231 cells; Homo sapiens, MDA-MB-231) | IC50 (L929 cells; Mus musculus, L929) | Score (GST P1-1 [2]) | IC50 (MCF-7 cells) | IC50 (MDA-MB-231 cells) | IC50 (L929 cells) |
| --- | --- | --- | --- | --- | --- | --- | --- | --- | --- | --- |
| Cc1cc(=O)n(-c2ccccc2)[nH]1 [5-Methyl-2-phenyl-1,2-dihydropyrazol-3-one] | 0.8 µM | 0.8 | 0.83 µM | > 100 µM | > 100 µM | > 100 µM |  |  |  |  |
| O=C1NC(=O)/C(=C/c2ccc(-c3ccc(F)cc3O)o2)S1 [AS252424] | 0.6 µM | 1.95 | 0.61 µM |  |  |  | 0.907 | 38 ± 2 µM | 91 ± 3 µM | 24 ± 2 µM |
| C[C@@H]1Cc2c([nH]c3ccccc23)[C@@H](c2c(F)cc(/C=C/C(=O)O)cc2F)N1CC(C)(C)F [AZD9496] | 2.1 µM | 2.23 | 2.05 µM | 14 ± 1 µM | 47 ± 5 µM | 36 ± 4 µM | 0.806 |  |  |  |
| CC(C)c1cc(C(C)C)c(CC(=O)NS(=O)(=O)Oc2c(C(C)C)cccc2C(C)C)c(C(C)C)c1 [Avasimibe] | 0.4 µM |  | 0.37 µM | 12 ± 1 µM | 16 ± 1 µM | 13 ± 1 µM | 0.835 |  |  |  |
| O=C(O)c1ccc2cc(-c3ccc(O)c(C45CC6CC(CC(C6)C4)C5)c3)ccc2c1 [CD437] | 0.3 µM | 11.6 | 0.32 µM |  |  |  | 0.939 | 0.51 ± 0.05 µM | 0.74 ± 0.07 µM | 0.24 ± 0.03 µM |
| CCCCCCCCCCCC1=C(O)C(=O)C=C(O)C1=O [Embelin] | 0.6 µM | 1.46 | 0.64 µM | 11 ± 1 µM | 12 ± 1 µM | 14 ± 1 µM | 0.935 |  |  |  |
| C=C(CC)C(=O)c1ccc(OCC(=O)O)c(Cl)c1Cl [Ethacrynic acid, EA, Ethacrynic acid] |  |  |  | 13 ± 1 µM | 14 ± 1 µM | > 100 µM |  |  |  |  |
| Cl.O=C(O)Cc1cccc(OCCCN(Cc2cccc(C(F)(F)F)c2Cl)CC(c2ccccc2)c2ccccc2)c1 [GW3965 (hydrochloride)] | 0.4 µM | 2.48 | 0.43 µM |  |  |  | 1.027 | 25 ± 1 µM | 54 ± 1 µM | 24 ± 2 µM |
| Oc1c(Cl)cc(Cl)c(Cl)c1Cc1c(O)c(Cl)cc(Cl)c1Cl [Hexachlorophene] | 0.4 µM | 2.2 | 0.42 µM | 14 ± 1 µM | 9 ± 1 µM | 11 ± 1 µM | 1.077 |  |  |  |
| Cc1cc(O)c2c(=O)c3c(O)cc(O)c4c5c(O)cc(O)c6c(=O)c7c(O)cc(C)c8c1c2c(c34)c(c78)c65 [Hypericin] | 0.1 µM | 11.6 |  | 8 ± 1 µM | 26 ± 3 µM | 19 ± 1 µM | 0.774 |  |  |  |
| O=C(O)[C@]1(Cc2cccc(Nc3nccs3)n2)CC[C@@H](Oc2cccc(Cl)c2F)CC1 [MK-5108] | 3.2 µM | 13.6 |  | 3.4 ± 0.8 µM | > 100 µM | 2.2 ± 0.5 µM | 0.933 |  |  |  |
| CC(C)(C)C(=O)CN1C(=O)[C@H](NC(=O)Nc2cccc(C(=O)O)c2)CN(C2CCCCC2)c2ccccc21 [Nastorazepide] | 3.3 µM | 10.6 |  |  |  |  | 0.958 | > 100 µM | > 100 µM | > 100 µM |
| O=C(O)c1ccccc1Nc1ccc(CCc2ccc(Cl)c(Cl)c2)cc1 [PD-118057] | 0.3 µM | 1.8 | 0.33 µM |  |  |  | 0.858 | 41 ± 4 µM | > 100 µM | > 100 µM |
| O=C(O)c1ccc(S(=O)(=O)N(Cc2ccc(OC(F)(F)F)cc2)c2ncc(C(F)(F)F)cc2Cl)cc1 [RQ-00203078] | 3.1 µM | 1.6 |  |  |  |  | 0.697 | 17 ± 2 µM | 51 ± 6 µM | 42 ± 6 µM |
| O=C1CC(=O)c2c(Cl)c(Cl)c(Cl)c(Cl)c21 [TCID] | 0.9 µM | 1.16 |  |  |  |  | 1.094 | > 100 µM | > 100 µM | > 100 µM |
| N#Cc1c(-c2ccccc2)cc(-c2cc(Br)ccc2O)[nH]c1=O [TCS PIM-1 1] | 2.2 µM | 2.5 | 2.15 µM |  |  |  | 0.813 | 74 ± 4 µM | > 100 µM | 36 ± 3 µM |
| C=CC(=O)c1ccc2ccccc2c1 [ZM 449829] | 1.4 µM | 1.3 |  |  |  |  |  | 6.8 ± 0.2 µM | 10.3 ± 0.2 µM | 8.1 ± 0.4 µM |
| O=C(O)c1cc(N2N=C(C(F)(F)F)/C(=C/c3ccc(-c4ccccc4)o3)C2=O)ccc1Cl [en460] | 1.1 µM | 1.4 |  |  |  |  | 0.837 | 10 ± 1 µM | 19 ± 1 µM | 18 ± 2 µM |
| O=C(O)c1c(Sc2ccccc2)c2cc(Cl)ccc2n1Cc1ccc(Cl)cc1 [nTZDpa] | 0.95 µM | 1.7 |  |  |  |  | 0.909 | 39 ± 2 µM | 95 ± 4 µM | 36 ± 3 µM |
| PSB 06126 | 0.3 µM | 3.4 | 0.29 µM |  |  |  | 0.962 | 45 ± 3 µM | > 100 µM | 39 ± 4 µM |
